Twelve compounds from patent US9328138B2 (priority 2011, dated 2016) can be followed below.

Assay [1] has as its target HCV NS3 protease genotype 3a (3A-1) (Hepatitis C virus genotype 3a, UniProt Q81258). Briefly: HCV NS3 protease time-resolved fluorescence (TRF) assay, genotype 3a. It is filed as biochemical. The following applies: Ki 3a. The method in brief: (§1)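 Assay buffer: 50 mM HEPES pH 7.5, 150 mM NaCl, 0.1% PEG 8000, 0.15% Triton X-100. Ten-minute enzyme–inhibitor preincubation; substrate at 25 nM final; 6 h reaction, room temperature; signal/background set at 5-20 by enzyme amount.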

For assay [2], the target named is T1, HCV genotype 1b (BK) NS3 modified enzyme with a R155K mutation (Hepatitis C virus genotype 1b, UniProt P26663, R1181K).
T1 construct: HCV genotype 1b (BK) NS3 modified enzyme
Briefly: HCV NS3 protease time-resolved fluorescence (TRF) assay, genotype 1b R155K. Type of assay: biochemical. The following applies: Ki 1b R155K. The gist of the method: as §1

[3] abbreviates: first of two values printed in the cell (not explained).
Setting [4] is: second of two values printed in the cell (not explained).
Where [5] appears, read: genotype 1b (BK) NS3 R155K, single value.

Where a name gives a salt, the structure may show the parent alone.

Usually Ki stands for a dissociation constant, usually derived from enzyme kinetics or from competition with a known ligand. The low end stands for higher affinity, the high end for lower affinity. Turning to `C=C[C@@H]1C[C@]1(NC(=O)[C@@H]1C[C@@H]2CN1C(=O)[C@H](C1CCCCC1)NC(=O)O[C@@H]1C[C@H]1CCCCCc1c(nc3ccccc3c1OC1CC3COCC(C1)N3CC)O2)C(=O)NS(=O)(=O)C1(C)CC1` (stereo partly drawn) [Example 290, 7-{[(1aR,5S,8S,10R,22aR)-5-cyclohexyl-8-{[(1R,2S)-2-ethenyl-1-{[(1-methylcyclopropyl)sulfonyl]carbamoyl}cyclopropyl]carbamoyl}-3,6-dioxo-1,1a,3,4,5,6,9,10,18,19,20,21,22,22a-tetradecahydro-8H-7,10-methanocyclopropa[18,19][1,10,3,6]dioxadiazacyclononadecino[11,12-b]quinolin-17-yl]oxy}-9-ethyl-3-oxa-9-azoniabicyclo[3.3.1]nonane formate], the Ki was determined as 1.14 nM in assay [1], 0.012 nM in assay [2] (setting [3]) and 0.125 nM in assay [2] (setting [4]).
`C=C[C@@H]1C[C@]1(NC(=O)[C@@H]1C[C@@H]2CN1C(=O)[C@H](C1CCCCC1)NC(=O)O[C@@H]1C[C@H]1CCCCCc1c(nc3ccccc3c1OC1CCCN(C)C1)O2)C(=O)NS(=O)(=O)C1(C)CC1` (stereo partly drawn) [Example 291, 3-{[(1aR,5S,8S,10R,22aR)-5-cyclohexyl-8-{[(1R,2S)-2-ethenyl-1-{[(1-methylcyclopropyl)sulfonyl]carbamoyl}cyclopropyl]carbamoyl}-3,6-dioxo-1,1a,3,4,5,6,9,10,18,19,20,21,22,22a-tetradecahydro-8H-7,10-methanocyclopropa[18,19][1,10,3,6]dioxadiazacyclononadecino[11,12-b]quinolin-17-yl]oxy}-1-methylpiperidinium formate]: the Ki worked out at 0.774 nM in assay [1], 0.01 nM in assay [2] (setting [3]) and 0.085 nM in assay [2] (setting [4]).
Taken in the same sequence, the figures for `C=C[C@@H]1C[C@]1(NC(=O)[C@@H]1C[C@@H]2CN1C(=O)[C@H](C1CCCCC1)NC(=O)O[C@@H]1C[C@H]1CCCCCc1c(nc3ccccc3c1O[C@@H]1CCN(C(=O)OC(C)(C)C)C[C@@H]1F)O2)C(=O)NS(=O)(=O)C1(C)CC1` [Example 292, tert-butyl (3S,4R)-4-{[(1aR,5S,8S,10R,22aR)-5-cyclohexyl-8-{[(1R,2S)-2-ethenyl-1-{[(1-methylcyclopropyl)sulfonyl]carbamoyl}cyclopropyl]carbamoyl}-3,6-dioxo-1,1a,3,4,5,6,9,10,18,19,20,21,22,22a-tetradecahydro-8H-7,10-methanocyclopropa[18,19][1,10,3,6]dioxadiazacyclononadecino[11,12-b]quinolin-17-yl]oxy}-3-fluoropiperidine-1-carboxylate] were 49.4 nM, 0.12 nM and 0.733 nM.
With `C=C[C@@H]1C[C@]1(NC(=O)[C@@H]1C[C@@H]2CN1C(=O)[C@H](C(C)(C)C)NC(=O)O[C@H]1C[C@@H]1CCCCCc1c(nc3ccncc3c1OC1CCN(C)CC1)O2)C(=O)NS(=O)(=O)C1(C)CC1` [Example 295, (1aS,5S,8S,10R,22aS)-5-tert-butyl-N-{(1R,2S)-2-ethenyl-1-[(1-methylcyclopropanesulfonamido)carbonyl]cyclopropyl}-17-[(1-methylpiperidin-4-yl)oxy]-3,6-dioxo-1,1a,3,4,5,6,9,10,18,19,20,21,22,22a-tetradecahydro-8H-7,10-methanocyclopropa[18,19][1,10,3,6]dioxadiazacyclononadecino[11,12-b][1,6]naphthyridine-8-carboxamide], the Ki came to 1.07 nM in assay [1] and 0.082 nM in assay [2] (setting [5]).
With `CC1(S(=O)(=O)NC(=O)[C@@]23C[C@H]2/C=C\CCCCC[C@@H]2NC(=O)O[C@@H]4C[C@H]4CCC/C=C/c4c(nc5ccccc5c4OCCN4CCCCC4)O[C@@H]4C[C@@H](C(=O)N3)N(C4)C2=O)CC1` [Example 296, (1aR,5S,11Z,12aS,13aR,16S,19R,27E,31aR)—N-[(1-methylcyclopropyl)sulfonyl]-3,15,33-trioxo-26-[2-(piperidin-1-yl)ethoxy]-1,1a,3,4,5,6,7,8,9,10,12a,13,15,16,18,19,29,30,31,31a-icosahydro-5,17:16,19-dimethanodicyclopropa[12,13:28,29][1,20,3,14,17]dioxatriazacyclononacosino[21,22-b]quinoline-13a(14H)-carboxamide], the Ki is 6 nM in assay [1] and 0.27 nM in assay [2] (setting [5]).
Taken in the same sequence, the figures for `CC1(S(=O)(=O)NC(=O)[C@@]23C[C@H]2/C=C\CCCCC[C@@H]2NC(=O)O[C@@H]4C[C@H]4CCC/C=C/c4c(nc5ccccc5c4OCCN4CCOCC4)O[C@@H]4C[C@@H](C(=O)N3)N(C4)C2=O)CC1` [Example 297, (1aR,5S,11Z,12aS,13aR,16S,19R,27E, 31aR)-N-[(1-methylcyclopropyl)sulfonyl]-26-[2-(morpholin-4-yl)ethoxy]-3,15,33-trioxo-1,1a,3,4,5,6,7,8,9,10,12a,13,15,16,18,19,29, 30,31,31a-icosahydro-5,17:16,19-dimethanodicyclopropa[12,13:28,29][1,20,3, 14,17]dioxatriazacyclononacosino[21,22-b]quinoline-13a(14H)-carboxamide] were 4.3 nM and 0.27 nM.
For `CC1(S(=O)(=O)NC(=O)[C@@]23C[C@H]2/C=C\CCCCC[C@@H]2NC(=O)O[C@@H]4C[C@H]4CCC/C=C/c4c(nc5ccccc5c4OCCCN4CCOCC4)O[C@@H]4C[C@@H](C(=O)N3)N(C4)C2=O)CC1` [Example 298, (1aR,5S,11Z,12aS,13aR,16S,19R,27E, 31aR)-N-[(1-methylcyclopropyl)sulfonyl]-26-[3-(morpholin-4-yl)propoxy]-3,15,33-trioxo-1,1a,3,4,5,6,7,8,9,10,12a,13,15,16,18,19,29, 30,31,31a-icosahydro-5,17:16,19-dimethanodicyclopropa[12,13:28,29][1,20,3,14,17]dioxatriazacyclononacosino[21,22-b]quinoline-13a(14H)-carboxamide], the results for the Ki in assay [1] and in assay [2] (setting [5]) were 4 nM and 0.49 nM, respectively.
On to `CC1(S(=O)(=O)NC(=O)[C@@]23C[C@H]2/C=C\CCCCC[C@@H]2NC(=O)O[C@@H]4C[C@H]4CCC/C=C/c4c(nc5ccccc5c4OCCN4CCCC4)O[C@@H]4C[C@@H](C(=O)N3)N(C4)C2=O)CC1` [Example 299, (1aR,5S,11Z,12aS,13aR,16S,19R,27E, 31aR)-N-[(1-methylcyclopropyl)sulfonyl]-3,15,33-trioxo-26-[2-(pyrrolidin-1-yl)ethoxy]-1,1a,3,4,5,6,7,8,9,10,12a,13,15,16,18,19,29, 30,31,31a-icosahydro-5,17:16,19-dimethanodicyclopropa[12,13:28,29][1,20,3, 14,17]dioxatriazacyclononacosino[21,22-b]quinoline-13a(14H)-carboxamide], for which the Ki in assay [1] amounted to 3.8 nM; in assay [2] (setting [5]) it was 0.19 nM.
Taken in the same sequence, the figures for `COc1c2c(nc3ccccc13)O[C@@H]1C[C@H]3C(=O)N[C@]4(C(=O)NS(=O)(=O)C5(C)CC5)C[C@H]4/C=C\CCCCC[C@H](NC(=O)O[C@@H]4C[C@H]4CCC/C=C/2)C(=O)N3C1` [Example 300, (1aR,5S,11Z,12aS,13aR,16S,19R,27E,31aR)-26-methoxy-N-[(1-methylcyclopropyl)sulfonyl]-3,15,33-trioxo-1,1a,3,4,5,6,7,8,9,10,12a,13,15,16,18,19,29,30,31,31a-icosahydro-5,17:16,19-dimethanodicyclopropa[12,13:28,29][1,20,3,14,17]dioxatriazacyclononacosino[21,22-b]quinoline-13a(14H)-carboxamide] were 7.1 nM and 0.23 nM.
With `CC1(S(=O)(=O)NC(=O)[C@@]23C[C@H]2/C=C\CCCCC[C@@H]2NC(=O)O[C@@H]4C[C@H]4CCCCCc4c(nc5ccccc5c4OCCN4CCOCC4)O[C@@H]4C[C@@H](C(=O)N3)N(C4)C2=O)CC1` [Example 301, (1aR,5S,11Z,12aS,13aR,16S,19R,31aR)—N-[(1-methylcyclopropyl)sulfonyl]-26-[2-(morpholin-4-yl)ethoxy]-3,15,33-trioxo-1,1a,3,4,5,6,7,8,9,10,12a,13,15,16,18,19,27,28,29,30,31,31a-docosahydro-5,17:16,19-dimethanodicyclopropa[12,13:28,29][1,20,3,14,17]dioxatriazacyclononacosino[21,22-b]quinoline-13a(14H)-carboxamide], the values for the Ki in assay [1] and in assay [2] (setting [5]) were 5.9 nM and 0.35 nM, respectively.
In the same order, the values of `CC1(S(=O)(=O)NC(=O)[C@@]23C[C@H]2/C=C\CCCCC[C@@H]2NC(=O)O[C@@H]4C[C@H]4CCC/C=C/c4c(nc5ccccc5c4OCCCN4CCCCC4)O[C@@H]4C[C@@H](C(=O)N3)N(C4)C2=O)CC1` [Example 302, (1aR,5S,11Z,12aS,13aR,16S,19R,27E,31aR)—N-[(1-methylcyclopropyl)sulfonyl]-3,15,33-trioxo-26-[3-(piperidin-1-yl)propoxy]-1,1a,3,4,5,6,7,8,9,10,12a,13,15,16,18,19,29,30,31,31a-icosahydro-5,17:16,19-dimethanodicyclopropa[12,13:28,29][1,20,3,14,17]dioxatriazacyclononacosino[21,22-b]quinoline-13a(14H)-carboxamide] are 2 nM and 0.16 nM.
Taken in the same sequence, the figures for `CC1(S(=O)(=O)NC(=O)[C@@]23C[C@H]2/C=C\CCCCC[C@@H]2NC(=O)O[C@@H]4C[C@H]4CCC/C=C/c4c(nc5ccccc5c4OCCCN4CCCC4)O[C@@H]4C[C@@H](C(=O)N3)N(C4)C2=O)CC1` [Example 303, (1aR,5S,11Z,12aS,13aR,16S,19R,27E, 31aR)-N-[(1-methylcyclopropyl)sulfonyl]-3,15,33-trioxo-26-[3-(pyrrolidin-1-yl)propoxy]-1,1a,3,4,5,6,7,8,9,10,12a,13,15,16,18, 19,29,30,31,31a-icosahydro-5,17:16,19-dimethanodicyclopropa[12,13:28,29] [1,20,3,14,17] dioxatriazacyclononacosino[21,22-b]quinoline-13a(14H)-carboxamide] were 3.6 nM and 0.28 nM.
